# US20140235558A1, “PHARMACEUTICAL COMPOSITION HAVING ACTIVITY OF ANTICANCER” (Hanall Biopharma Co., Ltd., priority 2010, published 2014)
# Structures can show the parent of a compound that is named as a salt. Where two headings read alike, the source gives them in different places.
# Assays:
# [1] = test system: colorectal cancer cell line HCT116; test: MTT cell growth inhibition, HCT116 cells; type: cell-based, human
# Protocol: (§1) Briefly, MCF7 and NCI-N87 cells were grown at a density of 5,000 cells/well in DMEM and RPMI1640 media (both purchased from Gibco Life Technologies, USA), respectively, both supplemented with 10% (v/v) bovine calf serum (BCS), on 96-well plates for 16 h (Temp.: 37° C., pH: 7.0˜7.4). Then, the MCF7 cells were incubated for 48 h with 2.5 mM 2-deoxy-D-glucose and 100 μM phenformin HCl, solely or in combination while NCI-N87 cells were incubated for 48 h with 2.5 mM 2-deoxy-D-glucose and 700 μM phenformin HCl, solely or in combination (Temp.: 37° C., pH: 7.0˜7.4). To quantitate viable cells after incubation with 2-deoxy-D-glucose and phenformin HCl, the cell cultures were further incubated for 3 h in the presence of MTT. The formazan crystals thus formed were dissolved with DMSO (dimethyl sulfoxide) before reading absorbance at 560 nm.
# (§2) After the 48 h incubation, viable cells were counted on the well plates treated with 2-deoxy-D-glucose and phenformin, and expressed as % cell growth inhibition relative to the count of the viable cells on the well plates treated with neither 2-deoxy-D-glucose nor phenformin.
# (§3) The same procedure as in Experimental Example 3 was repeated in the breast cancer cell line MCF7 and the colorectal cancer cell line HCT116 (both purchased from the Korean Cell Line Bank), with the exception that the materials and concentrations indicated in Tables 5 and 6 were employed.
# [2] = test system: human stomach cancer cell line NCI-N87; test: MTT cell growth inhibition, NCI-N87 cells; type: cell-based
# Protocol: as §1, §2
# (§4) When the human breast cancer cell line MCF7 and the human stomach cancer cell line NCI-N87 were treated with various concentrations of phenformin and 2-deoxy-D-glucose, % inhibition of cancer cell growth was measured. The same procedure as in Experimental Example 2 was repeated, with the exception that 2-deoxy-D-glucose and phenformin HCl were used at different concentrations.
# [3] = test system: human breast cancer cell line MCF7; test: MTT cell growth inhibition, MCF7 cells; type: cell-based
# Protocol: as §1, §2, §4, §3
# [4] = test system: AMPKα (5′-AMP-activated protein kinase alpha); test: AMPK activation: phosphorylation of AMPKα at Thr172 in MCF7 cells (AMPKα immunoassay kit); type: cell-based, human; details: MCF7, 24 h
# Protocol: AMPK activation occurs when the generation of ATP, an energy source necessary for the survival of cancer cells, is inhibited. […] In this regard, AMPKα (5'-AMP-activated protein kinase alpha) activation was measured in the MCF7 human breast cancer cells using the AMPKα immunoassay kit (Invitrogen, catalog No. KHO0651). […] Then, the cells were lysed using the AMPKα immunoassay kit (Invitrogen, catalog No. KHO0651) according to the manufacturer's instruction.
compound,measurement,setting,value
"OCC1O[C@H](O)C[C@@H](O)[C@@H]1O (mixture of isomers) [2-Deoxy-D-glucose, 2-deoxy-D-glucose]",Tumor Growth Inhibition (%),[1]; 2-DG 2.5 mM alone,62%
same,Tumor Growth Inhibition (%),[1]; 2-DG 5.0 mM alone,79%
same,Tumor Growth Inhibition (%),[1]; 2-DG 20.0 mM alone,93%
same,inhibition at 2500 µM,"[2]; Homo sapiens, NCI-N87, 48 h, 2-deoxy-D-glucose 2.5 mM",15.1%
same,Tumor Growth Inhibition (%),"[2]; NCI-N87, 2-DG 100 μM alone",3%
same,Tumor Growth Inhibition (%),"[2]; NCI-N87, 2-DG 500 μM alone",6%
same,Tumor Growth Inhibition (%),"[2]; NCI-N87, 2-DG 2 mM alone",32%
same,inhibition at 2500 µM,"[3]; Homo sapiens, MCF7, 48 h, read-out: Cell Growth Inhibition (%)",44.2%
same,Tumor Growth Inhibition (%),"[3]; MCF7, 2-DG 100 μM alone",0%
same,Tumor Growth Inhibition (%),"[3]; MCF7, 2-DG 500 μM alone",5%
same,Tumor Growth Inhibition (%),"[3]; MCF7, 2-DG 2 mM alone",31%
same,Tumor Growth Inhibition (%),"[3]; MCF7, 2-DG 2.5 mM alone (Table 5)",58%
same,Tumor Growth Inhibition (%),"[3]; MCF7, 2-DG 5.0 mM alone",76%
same,Tumor Growth Inhibition (%),"[3]; MCF7, 2-DG 20.0 mM alone",91%
same,inhibitory effect on breast cancer cells relative to stomach cancer cells,"[3]; MCF7 vs NCI-N87, 2.5 mM",about 3 times
same,Normalized to Control (P-AMPK),[4]; 2-deoxy-D-glucose 2.5 mM,1.46
same,P-AMPK (Unit/ml),[4]; 2-deoxy-D-glucose 2.5 mM,7.62 ± 1.2 Unit/ml
"CN(C)C(=N)N=C(N)N [Metformin HCl, metformin hydrochloride]",inhibition at 625 µM,"[1]; Homo sapiens, HCT-116, metformin HCl 0.625 mM alone, read-out: Tumor Growth Inhibition (%)",7%
same,inhibition at 1250 µM,"[1]; Homo sapiens, HCT-116, metformin HCl 1.25 mM alone, read-out: Tumor Growth Inhibition (%)",11%
same,inhibition at 2500 µM,"[1]; Homo sapiens, HCT-116, metformin HCl 2.5 mM alone, read-out: Tumor Growth Inhibition (%)",40%
same,inhibition at 5000 µM,"[1]; Homo sapiens, HCT-116, metformin HCl 5.0 mM alone, read-out: Tumor Growth Inhibition (%)",64%
same,inhibition at 10000 µM,"[1]; Homo sapiens, HCT-116, metformin HCl 10.0 mM alone, read-out: Tumor Growth Inhibition (%)",63%
same,inhibition at 20000 µM,"[1]; Homo sapiens, HCT-116, metformin HCl 20.0 mM alone, read-out: Tumor Growth Inhibition (%)",66%
same,inhibition at 625 µM,"[3]; Homo sapiens, MCF7, metformin HCl 0.625 mM alone, read-out: Tumor Growth Inhibition (%)",9%
same,inhibition at 1250 µM,"[3]; Homo sapiens, MCF7, metformin HCl 1.25 mM alone, read-out: Tumor Growth Inhibition (%)",22%
same,inhibition at 2500 µM,"[3]; Homo sapiens, MCF7, metformin HCl 2.5 mM alone, read-out: Tumor Growth Inhibition (%)",24%
same,inhibition at 5000 µM,"[3]; Homo sapiens, MCF7, metformin HCl 5.0 mM alone, read-out: Tumor Growth Inhibition (%)",30%
same,inhibition at 10000 µM,"[3]; Homo sapiens, MCF7, metformin HCl 10.0 mM alone, read-out: Tumor Growth Inhibition (%)",38%
same,inhibition at 20000 µM,"[3]; Homo sapiens, MCF7, metformin HCl 20.0 mM alone, read-out: Tumor Growth Inhibition (%)",61%
"N=C(N)NC(=N)NCCc1ccccc1 [Phenformin HCl, phenformin hydrochloride]",inhibition at 700 µM,"[2]; Homo sapiens, NCI-N87, 48 h, phenformin HCl 700 μM",52.5%
same,inhibition at 10 µM,"[2]; Homo sapiens, NCI-N87, phenformin 10 μM alone, read-out: Tumor Growth Inhibition (%)",22%
same,inhibition at 50 µM,"[2]; Homo sapiens, NCI-N87, phenformin 50 μM alone, read-out: Tumor Growth Inhibition (%)",24%
same,inhibition at 100 µM,"[2]; Homo sapiens, NCI-N87, phenformin 100 μM alone, read-out: Tumor Growth Inhibition (%)",24%
same,inhibition at 200 µM,"[2]; Homo sapiens, NCI-N87, phenformin 200 μM alone, read-out: Tumor Growth Inhibition (%)",24%
same,inhibition at 400 µM,"[2]; Homo sapiens, NCI-N87, phenformin 400 μM alone, read-out: Tumor Growth Inhibition (%)",26%
same,inhibition at 1000 µM,"[2]; Homo sapiens, NCI-N87, phenformin 1 mM alone, read-out: Tumor Growth Inhibition (%)",39%
same,inhibitory effect on stomach cancer cells relative to breast cancer cells,"[2]; NCI-N87 (700 μM) vs MCF7 (100 μM), 7-fold increased concentration",approximately 4 fold
same,inhibition at 100 µM,"[3]; Homo sapiens, MCF7, 48 h, phenformin HCl 100 μM, read-out: Cell Growth Inhibition (%)",14.3%
same,inhibition at 10 µM,"[3]; Homo sapiens, MCF7, phenformin 10 μM alone, read-out: Tumor Growth Inhibition (%)",9%
same,inhibition at 50 µM,"[3]; Homo sapiens, MCF7, phenformin 50 μM alone, read-out: Tumor Growth Inhibition (%)",12%
same,inhibition at 100 µM,"[3]; Homo sapiens, MCF7, phenformin 100 μM alone, read-out: Tumor Growth Inhibition (%)",14%
same,inhibition at 200 µM,"[3]; Homo sapiens, MCF7, phenformin 200 μM alone, read-out: Tumor Growth Inhibition (%)",18%
same,inhibition at 400 µM,"[3]; Homo sapiens, MCF7, phenformin 400 μM alone, read-out: Tumor Growth Inhibition (%)",31%
same,inhibition at 1000 µM,"[3]; Homo sapiens, MCF7, phenformin 1 mM alone, read-out: Tumor Growth Inhibition (%)",58%
same,Normalized to Control (P-AMPK),[4]; phenformin HCl 50 nM [sic],5.98
same,P-AMPK (Unit/ml),[4]; phenformin HCl 50 nM [sic],12.14 ± 2.0 Unit/ml
